Assay [1] concerns the target T1, HER2 wildtype (WT) protein (Homo sapiens, UniProt P04626).
T1 construct: BT474 and N87 cell lines which endogenously overexpress the HER2 wildtype (WT) protein; endogenous in cells; host or cells: BT474, N87
The assay can be described thus: HER2 signaling (pHER2 Tyr1248/total HER2 MSD) in N87 cells. The conditions noted are these: 1.5 hr compound, 1% FBS. Format: cell-based. The method, then: (§1) In addition to the engineered cell lines, the following cell lines were used: BT474 (human breast carcinoma), N87 (human gastric carcinoma), NCI-H1781 (human lung adenocarcinoma), and A431 (human epidermoid carcinoma); all cell lines were obtained from the American Type Culture Collection (ATCC, Manassas, VA). NCI-H1781 were grown in complete RPMI 1640 (Life Technologies, Carlsbad, CA) supplemented with 15% fetal bovine serum (FBS, Life Technologies, Carlsbad, CA) and 1% Penicillin-Streptomycin (P/S, Life Technologies, Carlsbad, CA). N87 cells were grown in complete RPMI 1640 supplemented with 10% FBS and 1% P/S. BT474 and A431 cells were grown in DMEM (Life Technologies, Carlsbad, CA) supplemented with 10% FBS and 1% P/S. All cells were maintained and propagated in a humidified 5% CO2 incubator at 37° C.
(§2) HER2 signaling was assessed in BT474 and N87 cell lines which endogenously overexpress the HER2 wildtype (WT) protein, in NCI-H1781 cells which endogenously expresses a HER2 mutant protein containing a VC insertion in the kinase domain (HER2VC or G776delinsVC), and in engineered cell lines transduced to express the Her2 mutant protein containing the YVMA insertion (Hek293-HER2YVMA and BEAS2B-HER2YVMA).
(§3) BT474, N87, and NCI-H1781 were plated in 96-well tissue-culture treated plates (Corning Costar, Sigma-Aldrich) in full media and incubated overnight. Hek293-HER2YVMA and BEAS2B-HER2YVMA cells were plated in 96-well poly-D-lysine treated plates (BD Bioscience, San Jose, CA). For treatment with test compounds, the media was replaced with corresponding low serum media (1% FBS) containing test compound at 1.1, 0.37, 0.12, 0.041, 0.014, 0.005, 0.0014, 0.0005 μM or DMSO control (0.1%). Cells were incubated with compound for 1.5 hr at 37° C. After compound treatment, the media was removed and cells were lysed for 30 min on ice in complete MSD lysis buffer (prepared using MSD base lysis buffer (Meso-Scale Discovery) supplemented with cOmplete, EDTA-free Protease inhibitor cocktail (Roche), Phosphatase Inhibitor Cocktails 2 and 3 (Sigma-Aldrich), and 1 mM PMSF (Sigma-Aldrich)). Lysates were stored at −70° C. until further analysis.
(§4) HER2 signaling was evaluated using phospho (Tyr1248)/total ErbB2 whole cell lysate MSD plates (Meso-Scale Discovery, Gaithersburg, MD). The phospho HER2 signal was normalized to total HER2 for each sample; results are reported as % DMSO control. The normalized data was fitted using a sigmoidal curve analysis program (Graph Pad Prism version 6) with variable Hill slope to determine EC50 values.
(§5) The HER2 signaling results are provided in Table 4, under columns titled “BT474-pHER2 EC50”, “N87-pHER2 EC50”, and “NCI-H1781-pHER2 EC50”. Hek293-HER2YVMA ins fall under the heading “HEKYVMA-pHER2 EC50”, Ba/F3 HER2YVMA fall under the heading “Ba/F3 YVMA-pHER2 EC50” and BEAS2B-HER2YVMA fall under the heading “BEAS2B YVMA-pHER2 EC50”.

For the next assay, the target named is HER2YVMA (Homo sapiens, UniProt P04626, INS775YVMA). The assay can be described thus: Enzymatic assay HER2YVMA (method b). Also on record: purchased Viva biotech, Shanghai, China custom purification. The conditions noted are these: [HER2YVMA]=5 nM, [ATP]=25 μM, [Peptide 22]=1 μM. Format: biochemical. Summed up:
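Microfluidic mobility-shift kinase assay with Peptide 22 (1 μM) in HEPES pH 7.5, MnCl2, MgCl2, Tween 20, TCEP. HER2 WT 12.5 nM and HER2 YVMA 5 nM each used 25 μM ATP; EGFR WT 2 nM used 1 mM ATP. IC50 came from initial-velocity (0–3600 s) percent inhibition, fitted to a variable-slope model.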

Another assay addresses T2, HER2VC (G776delinsVC) (Homo sapiens, UniProt P04626, G776C/INS775V).
T2 construct: NCI-H1781 cells which endogenously expresses a HER2 mutant protein; endogenous in cells; host or cells: NCI-H1781
The assay can be described thus: HER2 signaling (pHER2) in NCI-H1781 cells. Format: cell-based. The conditions noted are these: 1.5 hr compound, 1% FBS. How it is done:
as §1, §2, §3, §4, §5

T1 sequence (P04626 23-1255): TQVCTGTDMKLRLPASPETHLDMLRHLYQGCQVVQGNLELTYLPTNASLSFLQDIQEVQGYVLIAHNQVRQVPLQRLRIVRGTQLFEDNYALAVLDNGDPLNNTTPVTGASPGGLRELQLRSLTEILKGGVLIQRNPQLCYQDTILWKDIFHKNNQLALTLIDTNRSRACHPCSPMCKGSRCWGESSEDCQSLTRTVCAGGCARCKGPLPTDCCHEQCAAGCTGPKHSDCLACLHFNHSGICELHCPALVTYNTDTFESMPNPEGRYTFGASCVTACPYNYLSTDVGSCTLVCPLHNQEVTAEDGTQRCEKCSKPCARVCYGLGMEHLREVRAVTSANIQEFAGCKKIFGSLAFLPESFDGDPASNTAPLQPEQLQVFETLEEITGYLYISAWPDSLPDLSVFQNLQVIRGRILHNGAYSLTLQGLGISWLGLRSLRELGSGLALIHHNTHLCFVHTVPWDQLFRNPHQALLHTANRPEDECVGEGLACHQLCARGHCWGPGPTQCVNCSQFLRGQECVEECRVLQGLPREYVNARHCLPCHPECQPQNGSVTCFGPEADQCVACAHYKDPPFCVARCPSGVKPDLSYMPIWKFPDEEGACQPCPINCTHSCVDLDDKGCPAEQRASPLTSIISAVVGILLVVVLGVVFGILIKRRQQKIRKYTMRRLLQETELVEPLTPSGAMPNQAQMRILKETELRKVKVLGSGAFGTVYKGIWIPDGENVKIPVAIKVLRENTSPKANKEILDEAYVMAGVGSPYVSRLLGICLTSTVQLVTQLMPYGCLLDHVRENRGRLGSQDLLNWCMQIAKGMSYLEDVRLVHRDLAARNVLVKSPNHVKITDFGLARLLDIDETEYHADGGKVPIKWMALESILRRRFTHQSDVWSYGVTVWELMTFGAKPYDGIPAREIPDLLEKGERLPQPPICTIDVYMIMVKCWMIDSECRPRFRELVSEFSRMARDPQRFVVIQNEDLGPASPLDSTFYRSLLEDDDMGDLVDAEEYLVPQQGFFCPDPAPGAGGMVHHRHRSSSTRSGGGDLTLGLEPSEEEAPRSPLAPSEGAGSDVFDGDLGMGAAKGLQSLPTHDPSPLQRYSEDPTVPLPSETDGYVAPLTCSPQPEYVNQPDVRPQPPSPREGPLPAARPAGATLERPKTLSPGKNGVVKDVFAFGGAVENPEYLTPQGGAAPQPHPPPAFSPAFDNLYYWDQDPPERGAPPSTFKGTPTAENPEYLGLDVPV
T2 sequence (P04626 with tags, fused parts or gaps INS775V/G776C): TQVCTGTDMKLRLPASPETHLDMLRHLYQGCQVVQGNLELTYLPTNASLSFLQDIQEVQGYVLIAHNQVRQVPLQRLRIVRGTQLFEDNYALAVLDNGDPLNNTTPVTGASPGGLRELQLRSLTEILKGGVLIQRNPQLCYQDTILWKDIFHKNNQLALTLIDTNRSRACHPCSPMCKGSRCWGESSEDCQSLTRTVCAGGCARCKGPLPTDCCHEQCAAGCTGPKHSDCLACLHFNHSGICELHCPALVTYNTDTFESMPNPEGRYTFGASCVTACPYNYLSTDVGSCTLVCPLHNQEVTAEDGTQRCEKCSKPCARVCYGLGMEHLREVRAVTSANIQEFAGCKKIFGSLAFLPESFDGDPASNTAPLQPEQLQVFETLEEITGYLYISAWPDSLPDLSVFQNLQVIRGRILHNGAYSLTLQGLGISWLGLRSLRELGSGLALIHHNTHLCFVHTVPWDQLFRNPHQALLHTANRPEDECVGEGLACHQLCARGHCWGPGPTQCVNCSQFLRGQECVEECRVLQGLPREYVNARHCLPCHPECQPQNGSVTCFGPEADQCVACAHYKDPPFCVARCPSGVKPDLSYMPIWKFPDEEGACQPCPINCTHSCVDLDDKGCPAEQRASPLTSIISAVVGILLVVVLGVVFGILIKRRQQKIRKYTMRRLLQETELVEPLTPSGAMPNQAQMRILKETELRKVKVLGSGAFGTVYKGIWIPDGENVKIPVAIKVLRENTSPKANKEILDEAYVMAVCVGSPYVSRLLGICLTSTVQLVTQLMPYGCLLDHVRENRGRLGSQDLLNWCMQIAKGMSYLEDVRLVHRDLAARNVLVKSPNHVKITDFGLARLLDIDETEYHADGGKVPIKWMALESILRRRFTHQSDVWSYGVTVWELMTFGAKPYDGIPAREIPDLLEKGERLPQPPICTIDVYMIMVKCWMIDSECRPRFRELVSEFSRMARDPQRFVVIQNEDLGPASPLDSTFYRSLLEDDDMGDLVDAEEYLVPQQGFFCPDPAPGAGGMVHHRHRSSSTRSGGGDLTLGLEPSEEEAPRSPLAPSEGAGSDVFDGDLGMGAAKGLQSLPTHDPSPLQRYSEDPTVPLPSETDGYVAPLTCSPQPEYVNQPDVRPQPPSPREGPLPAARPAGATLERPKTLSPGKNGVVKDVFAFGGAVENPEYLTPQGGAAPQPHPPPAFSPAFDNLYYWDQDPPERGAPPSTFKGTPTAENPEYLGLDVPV
HER2YVMA, sequence (P04626 with tags, fused parts or gaps INS775YVMA): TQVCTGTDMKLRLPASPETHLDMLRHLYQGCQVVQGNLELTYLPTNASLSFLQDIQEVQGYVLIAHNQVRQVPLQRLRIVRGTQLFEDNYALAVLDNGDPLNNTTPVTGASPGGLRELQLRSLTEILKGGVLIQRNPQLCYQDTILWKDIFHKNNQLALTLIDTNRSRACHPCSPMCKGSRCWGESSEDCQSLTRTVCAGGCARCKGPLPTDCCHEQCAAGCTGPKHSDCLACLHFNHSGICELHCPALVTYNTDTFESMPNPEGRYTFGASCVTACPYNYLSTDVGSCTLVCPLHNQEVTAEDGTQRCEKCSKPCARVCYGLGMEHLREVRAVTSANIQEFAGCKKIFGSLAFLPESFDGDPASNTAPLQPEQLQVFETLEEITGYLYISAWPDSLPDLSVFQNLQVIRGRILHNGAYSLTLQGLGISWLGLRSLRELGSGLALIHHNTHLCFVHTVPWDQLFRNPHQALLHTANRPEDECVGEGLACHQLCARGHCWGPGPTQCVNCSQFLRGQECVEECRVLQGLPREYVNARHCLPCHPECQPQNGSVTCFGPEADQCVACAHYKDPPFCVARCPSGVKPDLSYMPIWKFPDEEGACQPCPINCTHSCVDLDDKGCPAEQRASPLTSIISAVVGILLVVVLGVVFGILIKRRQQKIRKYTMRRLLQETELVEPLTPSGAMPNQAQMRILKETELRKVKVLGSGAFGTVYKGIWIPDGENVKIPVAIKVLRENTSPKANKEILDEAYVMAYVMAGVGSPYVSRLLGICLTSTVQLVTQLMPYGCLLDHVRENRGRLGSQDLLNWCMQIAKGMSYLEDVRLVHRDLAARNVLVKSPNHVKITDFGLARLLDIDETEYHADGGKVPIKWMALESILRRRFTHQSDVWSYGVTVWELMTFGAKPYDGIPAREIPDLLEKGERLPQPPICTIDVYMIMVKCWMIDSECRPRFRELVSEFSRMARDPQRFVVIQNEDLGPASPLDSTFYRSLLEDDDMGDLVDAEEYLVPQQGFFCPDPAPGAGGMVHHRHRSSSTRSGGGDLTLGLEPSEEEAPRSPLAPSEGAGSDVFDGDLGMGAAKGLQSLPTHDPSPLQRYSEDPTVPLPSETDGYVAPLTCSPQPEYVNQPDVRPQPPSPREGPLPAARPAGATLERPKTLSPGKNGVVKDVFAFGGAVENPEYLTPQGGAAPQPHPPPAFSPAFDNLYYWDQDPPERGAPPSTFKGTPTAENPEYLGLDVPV

On to `COc1ccc(Oc2ccc(Nc3ncnc4sc5c(c34)CCN(C(=O)/C=C/CN(C)C)C5)cc2C)cn1` [Compound 95, (E)-4-(Dimethylamino)-1-(4-((4-((6-methoxypyridin-3-yl)oxy)-3-methylphenyl)amino)-5,6-dihydropyrido[4′,3′:4,5]thieno[2,3-d]pyrimidin-7(8H)-yl)but-2-en-1-one], for which the 50% effective concentration (EC50) (in assay [1]; at HER2VC (G776delinsVC)) was less than 100 nM in each case. This compound had a concentration for half-maximal inhibition (IC50) against HER2YVMA of less than 100 nM.

For the compound `Cc1cc(Nc2ncnc3sc4c(c23)CCN(C(=O)/C=C/CN(C)C)C4)ccc1Oc1ccc2ncnn2c1` [Compound 3, (E)-1-(4-((4-([1,2,4]triazolo[1,5-a]pyridin-6-yloxy)-3-methylphenyl)amino)-5,8-dihydropyrido[4′,3′:4,5]thieno[2,3-d]pyrimidin-7(6H)-yl)-4-(dimethylamino)but-2-en-1-one], on HER2YVMA, the IC50 lay within 100 to 1000 nM. The same compound had an EC50 on HER2VC (G776delinsVC) of less than 100 nM.

On HER2YVMA, `C=CC(=O)N1CCc2c(sc3ncnc(Nc4ccc(Oc5ccc6ncnn6c5)c(Cl)c4)c23)C1` [Compound 4, 1-(4-((4-([1,2,4]triazolo[1,5-a]pyridin-6-yloxy)-3-chlorophenyl)amino)-5,8-dihydropyrido[4′,3′:4,5]thieno[2,3-d]pyrimidin-7(6H)-yl)prop-2-en-1-one] gave an IC50 of less than 100 nM. The half-maximal effective concentration (EC50) on HER2VC (G776delinsVC) is less than 100 nM.

In the case of `Cc1ccc(Oc2ccc(Nc3ncnc4sc5c(c34)CCN(C(=O)/C=C/CN3CC4C(CO)C4C3)C5)cc2C)cn1` (stereo not drawn) [Compound 34], the half-maximal effective concentration (EC50) (in assay [1]; on HER2VC (G776delinsVC)) was less than 100 nM throughout. Besides, the IC50 against HER2YVMA was less than 100 nM.

Compound `Cc1ccc(Oc2ccc(Nc3ncnc4sc5c(c34)C(C)CN(C(=O)/C=C/CN(C)C)C5)cc2C)cn1` (stereo not drawn) [Compound 98, (E)-4-(dimethylamino)-1-(5-methyl-4-((3-methyl-4-((6-methylpyridin-3-yl)oxy)phenyl)amino)-5,8-dihydropyrido[4′,3′:4,5]thieno[2,3-d]pyrimidin-7(6H)-yl)but-2-en-1-one] came in with an IC50 on HER2YVMA of less than 100 nM. Besides, the 50% effective concentration (EC50) at HER2VC (G776delinsVC) was less than 100 nM.

`Cc1ccc(Oc2ccc(Nc3ncnc4sc5c(c34)CCN(C(=O)/C=C/CN(C)C(C)(C)C)C5)cc2C)cn1` [Compound 33]: the half-maximal effective concentration (EC50) (in assay [1]; on HER2VC (G776delinsVC)) was less than 100 nM in each case. Moreover, the half-inhibitory concentration (IC50) against HER2YVMA is less than 100 nM.

`CN(C)C/C=C/C(=O)N1CCc2c(sc3ncnc(Nc4ccc(Oc5ccc6ncnn6c5)c(Cl)c4)c23)C1` [Compound 5, (E)-1-(4-((4-([1,2,4]triazolo[1,5-a]pyridin-6-yloxy)-3-chlorophenyl)amino)-5,8-dihydropyrido[4′,3′:4,5]thieno[2,3-d]pyrimidin-7(6H)-yl)-4-(dimethylamino)but-2-en-1-one]: the concentration for a half-maximal effect (EC50) (in assay [1]; on HER2VC (G776delinsVC)) was less than 100 nM each time. Further, the IC50 against HER2YVMA was less than 100 nM.

`Cc1cc(Nc2ncnc3sc4c(c23)CCN(C(=O)/C=C/CN2CC3CCC(C3)C2)C4)ccc1Oc1ccc2ncnn2c1` [Compound 20] had an IC50 on HER2YVMA of less than 100 nM.

On to `Cc1ccc(Oc2ccc(Nc3ncnc4sc5c(c34)CCN(C(=O)/C=C/CN3CCCOCC3)C5)cc2C)cn1` [Compound 42], for which, at HER2YVMA, the concentration for half-maximal inhibition (IC50) was less than 100 nM.

In the case of `Cc1cc(Nc2ncnc3sc4c(c23)CCN(C(=O)/C=C/CN(C)C(C)(C)C)C4)ccc1Oc1ccc2ncnn2c1` [Compound 80], at HER2YVMA, the IC50 was less than 100 nM.

Consider `Cc1ccc(Oc2ccc(Nc3ncnc4[nH]c5c(c34)CN(C(=O)/C=C/CN(C)C)CC5)cc2C)cn1` [Compound 97, (E)-4-(dimethylamino)-1-(4-((3-methyl-4-((6-methylpyridin-3-yl)oxy)phenyl)amino)-5,7,8,9-tetrahydro-6H-pyrido[3′,4′:4,5]pyrrolo[2,3-d]pyrimidin-6-yl)but-2-en-1-one], for which the half-inhibitory concentration (IC50) against HER2YVMA was less than 100 nM.

Turning to `C=C(CN1CCc2c(sc3ncnc(Nc4ccc(Oc5ccc(C)nc5)c(C)c4)c23)C1)C(=O)OCC` [Compound 86, Ethyl 2-((4-((3-methyl-4-((6-methylpyridin-3-yl)oxy)phenyl)amino)-5,8-dihydropyrido[4′,3′:4,5]thieno[2,3-d]pyrimidin-7(6H)-yl)methyl)acrylate], at HER2YVMA, the IC50 was 1000 to 10000 nM.

Compound `Cc1ccc(Oc2ccc(Nc3ncnc4sc5c(c34)CCN(C(=O)/C=C/CNCC3CN(C)CCO3)C5)cc2C)cn1` (stereo not drawn) [Compound 48] returned a half-maximal inhibitory concentration (IC50) against HER2YVMA of less than 100 nM.

In the case of `Cc1ccc(Oc2ccc(Nc3ncnc4sc5c(c34)C(C)CN(C(=O)C=CCN(C)C)C5)cc2C)cn1` (single isomer, unassigned) [Compound 106], the EC50 (in assay [1]; at HER2VC (G776delinsVC)) was less than 100 nM in each case. In addition, the 50% inhibitory concentration (IC50) at HER2YVMA was less than 100 nM.

At HER2YVMA, `Cc1ccc(Oc2ccc(Nc3ncnc4sc5c(c34)CCCN(C(=O)/C=C/CN(C)C)C5)cc2C)cn1` [Compound 101, (E)-4-(Dimethylamino)-1-(4-((3-methyl-4-((6-methylpyridin-3-yl)oxy)phenyl)amino)-6,7-dihydro-5H-pyrimido[5′,4′:4,5]thieno[2,3-c]azepin-8(9H)-yl)but-2-en-1-one] showed a concentration for half-maximal inhibition (IC50) of less than 100 nM.

Regarding `Cc1ccc(Oc2ccc(Nc3ncnc4sc5c(c34)CCN(C(=O)/C=C/CN(C)C)CC5)cc2C)cn1` [Compound 100, (E)-4-(dimethylamino)-1-(4-((3-methyl-4-((6-methylpyridin-3-yl)oxy)phenyl)amino)-8,9-dihydro-5H-pyrimido[5′,4′:4,5]thieno[2,3-d]azepin-7(6H)-yl)but-2-en-1-one], the EC50 (in assay [1]; at HER2VC (G776delinsVC)) was less than 100 nM each time. Moreover, at HER2YVMA, the half-inhibitory concentration (IC50) lay within 100 to 1000 nM.

Compound `CC(=O)N1CCN(C/C=C/C(=O)N2CCc3c(sc4ncnc(Nc5ccc(Oc6ccc(C)nc6)c(C)c5)c34)C2)CC1` [Compound 51] came in with a half-inhibitory concentration (IC50) against HER2YVMA of 100 to 1000 nM.

`O=C(/C=C/CN1CC2CC(C2)C1)N1CCc2c(sc3ncnc(Nc4ccc(Oc5ccc6ncnn6c5)c(Cl)c4)c23)C1` [Compound 85] yielded an IC50 against HER2YVMA of less than 100 nM.

`Cc1cc(Nc2ncnc3sc4c(c23)CCN(C(=O)/C=C/CN2CC3CC2CO3)C4)ccc1Oc1ccc2ncnn2c1` (stereo not drawn) [Compound 77] had an IC50 at HER2YVMA of 100 to 1000 nM.

Regarding `Cc1ccc(Oc2ccc(Nc3ncnc4sc5c(c34)C(C)CN(C(=O)C=CCN(C)C)C5)cc2C)cn1` (single isomer, unassigned) [Compound 105], the EC50 (in assay [1]; at HER2VC (G776delinsVC)) was less than 100 nM throughout. Also, on HER2YVMA, the IC50 was less than 100 nM.

On HER2YVMA, `Cc1ccc(Oc2ccc(Nc3ncnc4sc5c(c34)CCN(C(=O)/C=C/CN3CC4CC3CO4)C5)cc2C)cn1` (stereo not drawn) [Compound 26] had an IC50 of less than 100 nM.

With `COCCN1CCN(C/C=C/C(=O)N2CCc3c(sc4ncnc(Nc5ccc(Oc6ccc(C)nc6)c(C)c5)c34)C2)CC1` [Compound 59], at HER2YVMA, the half-inhibitory concentration (IC50) lay within 100 to 1000 nM.

On HER2YVMA, `Cc1ccc(Oc2ccc(Nc3ncnc4sc5c(c34)CCN(C(=O)/C=C/CN(CCO)CCO)C5)cc2C)cn1` [Compound 37] displayed a concentration for half-maximal inhibition (IC50) of less than 100 nM.

On HER2YVMA, `Cc1cc(Nc2ncnc3sc4c(c23)CN(C(=O)/C=C/CN(C)C)CC4)ccc1Oc1ccc2ncnn2c1` [Compound 103, (E)-1-(4-((4-([1,2,4]triazolo[1,5-a]pyridin-6-yloxy)-3-methylphenyl)amino)-7,8-dihydropyrido[3′,4′:4,5]thieno[2,3-d]pyrimidin-6(5H)-yl)-4-(dimethylamino)but-2-en-1-one] had a half-maximal inhibitory concentration (IC50) of less than 100 nM.

`CN(C/C=C/C(=O)N1CCc2c(sc3ncnc(Nc4ccc(Oc5ccc6ncnn6c5)c(Cl)c4)c23)C1)C(C)(C)C` [Compound 91] displayed an IC50 against HER2YVMA of less than 100 nM.

The values are drawn from patent US20240391931A1 (Bristol-Myers Squibb Company, priority 2021, published 2024).
